Assay results taken from ChEMBL document CHEMBL3784992, “Identification of novel estrogen receptor (ER) agonists that have additional and complementary anti-cancer activities via ER-independent mechanism” (Bioorg Med Chem Lett, 2016).
pEC50: −log10 of the molar value. The source made the active and inactive calls. The calls are words filed in the database; no cut-off is given here.

Key:
MCF7 [1] = experiment: Induction of apoptosis in ER-positive human MCF7 cells assessed as condensed nuclei at 10 uM after 24 hrs by DAPI staining based fluorescence microscopy; format: functional, cell-based
MDA-MB-231 = experiment: Antiproliferative activity against ER-negative human MDA-MB-231 cells assessed as cell viability after 48 hrs by MTT assay; format: functional, cell-based
MCF7 [2] = experiment: Effect on cell cycle in ER-positive human MCF7 cells assessed as accumulation at subG1 phase at 10 uM after 48 hrs by propidium iodide staining based flow cytometry; format: functional
[3] = molecular target: T1, Estrogen receptor (Homo sapiens) (UniProt P03372); experiment: Agonist activity at estrogen receptor alpha in human MCF7 cells assessed as ER alpha phosphorylation at 10 uM after 24 hrs by immunoblotting analysis; format: cell-based
T1 sequence (whole entry): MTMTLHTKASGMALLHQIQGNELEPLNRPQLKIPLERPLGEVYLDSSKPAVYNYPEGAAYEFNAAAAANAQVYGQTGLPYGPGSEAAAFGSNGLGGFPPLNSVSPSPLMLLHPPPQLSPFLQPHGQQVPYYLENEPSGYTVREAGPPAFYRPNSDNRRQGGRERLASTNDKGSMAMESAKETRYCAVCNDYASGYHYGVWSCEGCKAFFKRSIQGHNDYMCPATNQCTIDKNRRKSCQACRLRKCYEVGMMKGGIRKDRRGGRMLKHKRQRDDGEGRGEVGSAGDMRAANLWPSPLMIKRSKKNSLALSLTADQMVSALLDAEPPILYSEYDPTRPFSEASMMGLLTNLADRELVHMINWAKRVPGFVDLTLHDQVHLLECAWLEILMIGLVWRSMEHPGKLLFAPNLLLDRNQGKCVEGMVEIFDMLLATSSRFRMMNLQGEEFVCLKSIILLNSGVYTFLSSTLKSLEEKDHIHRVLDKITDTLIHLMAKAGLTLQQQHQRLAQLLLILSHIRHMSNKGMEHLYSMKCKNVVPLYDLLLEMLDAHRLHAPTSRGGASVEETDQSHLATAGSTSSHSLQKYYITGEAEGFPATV

[4] = molecular target: T1, Estrogen receptor (Homo sapiens); experiment: Agonist activity at estrogen receptor in human MCF7 cells assessed as GREB1 mRNA level at 10 uM after 24 hrs by RT-qPCR method; format: cell-based
Estrogen receptor = molecular target: T2, Estrogen receptor (Homo sapiens, UniProt P03372); experiment: Agonist activity at estrogen receptor in human MCF7 cells assessed as ERE-mediated transcriptional activity after 24 hrs by luciferase assay; format: cell-based
T2 sequence (P03372 whole entry): T1 sequence (whole entry)

MCF7 [5] = experiment: Induction of apoptosis in ER-positive human MCF7 cells assessed as cell death at 10 uM after 48 hrs by annexin-V staining based flow cytometry; format: functional
MCF7 [6] = experiment: Antiproliferative activity against ER-positive human MCF7 cells assessed as cell viability at 10 uM after 48 hrs by MTT assay; format: functional, cell-based
MCF7 [7] = experiment: Antiproliferative activity against ER-positive human MCF7 cells assessed as cell viability after 48 hrs by MTT assay; format: functional, cell-based
MCF7 [8] = experiment: Induction of apoptosis in ER-positive human MCF7 cells assessed as membrane blebbing at 10 uM after 24 hrs by DAPI staining based fluorescence microscopy; format: functional, cell-based

Row | Activity [3] | Activity [4] | pEC50 (Estrogen receptor) | Compound | Activity (MCF7 [1]) | Activity (MDA-MB-231) | Activity (MCF7 [2]) | Activity (MCF7 [5]) | Activity (MCF7 [6]) | Activity (MCF7 [7]) | Activity (MCF7 [8])
1 | Active | Active | 7.12 | CCCCON=C(c1ccc(O)cc1)c1ccc(O)cc1 | Active | Dose-dependent effect | Active | Active | Active | Dose-dependent effect | Active
2 | Active | Active | 7.11 | CC(C)CCON=C(c1ccc(O)cc1)c1ccc(O)cc1 | Active | Dose-dependent effect | Active | Active | Active | Dose-dependent effect | Active
3 | Active | Active | 7.34 | C=CCCCON=C(c1ccc(O)cc1)c1ccc(O)cc1 | Active | Dose-dependent effect | Active | Active | Active | Dose-dependent effect | Active
